Assay results from the supplement of paper PMC10307832.

Experiments:
Experiment in all cases: relative viability (nuclei count vs DMSO), 5 days (fraction); higher = more cells survive
SW 1573 = system: SW 1573
Method in brief: (§1)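 Lung cancer cell lines, seeded in 1536-well plates, were treated the following day by pin tool with a single drug or with five library-drug doses (not always all listed) in √10 steps on top of a fixed anchor-drug dose. Cells were fixed and nuclei stained in one step after 5 days, and nuclei were counted. Relative viability is the nuclei count for treated wells divided by that for vehicle wells, reported as medians of duplicate plates.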

NCI-H1395 = system: NCI-H1395
Method in brief: as §1

NCI-H2228 = system: NCI-H2228
Method in brief: as §1

HCC-827 = system: HCC-827
Method in brief: as §1

CAL-12T = system: CAL-12T
Method in brief: as §1

NCI-H1437 = system: NCI-H1437
Method in brief: as §1

NCI-H23 = system: NCI-H23
Method in brief: as §1

NCI-H522 = system: NCI-H522
Method in brief: as §1

EMC-BAC-2 = system: EMC-BAC-2
Method in brief: as §1

NCI-H1755 = system: NCI-H1755
Method in brief: as §1

NCI-H1792 = system: NCI-H1792
Method in brief: as §1

HOP-62 = system: HOP-62
Method in brief: as §1

NCI-H727 = system: NCI-H727
Method in brief: as §1

HCC-366 = system: HCC-366
Method in brief: as §1

SK-LU-1 = system: SK-LU-1
Method in brief: as §1

NCI-H460 = system: NCI-H460
Method in brief: as §1

COR-L 105 = system: COR-L 105
Method in brief: as §1

NCI-H2009 = system: NCI-H2009
Method in brief: as §1

A-427 = system: A-427
Method in brief: as §1

NCI-H1915 = system: NCI-H1915
Method in brief: as §1

LCLC-103H = system: LCLC-103H
Method in brief: as §1

HARA = system: HARA
Method in brief: as §1

CCN(CC)CCCCNc1ncc2cc(-c3cc(OC)cc(OC)c3)c(NC(=O)NC(C)(C)C)nc2n1 + N=C(N)NC(=N)NCCc1ccccc1 [Phenformin] (partner 250 µM)
relative viability (SW 1573; first compound 0.01 µM): 0.351
relative viability (SW 1573; first compound 0.03162 µM): 0.372
relative viability (SW 1573; first compound 0.1 µM): 0.394
relative viability (SW 1573; first compound 0.3162 µM): 0.36
relative viability (SW 1573; first compound 1 µM): 0.36
relative viability (NCI-H1395; first compound 0.01 µM): 0.426
relative viability (NCI-H1395; first compound 0.03162 µM): 0.455
relative viability (NCI-H1395; first compound 0.1 µM): 0.451
relative viability (NCI-H1395; first compound 0.3162 µM): 0.431
relative viability (NCI-H1395; first compound 1 µM): 0.397
relative viability (NCI-H2228; first compound 0.01 µM): 0.341
relative viability (NCI-H2228; first compound 0.03162 µM): 0.336
relative viability (NCI-H2228; first compound 0.1 µM): 0.384
relative viability (NCI-H2228; first compound 0.3162 µM): 0.346
relative viability (NCI-H2228; first compound 1 µM): 0.304
relative viability (HCC-827; first compound 0.01 µM): 0.437
relative viability (HCC-827; first compound 0.03162 µM): 0.422
relative viability (HCC-827; first compound 0.1 µM): 0.417
relative viability (HCC-827; first compound 0.3162 µM): 0.467
relative viability (HCC-827; first compound 1 µM): 0.426
relative viability (CAL-12T; first compound 0.01 µM): 0.595
relative viability (CAL-12T; first compound 0.03162 µM): 0.582
relative viability (CAL-12T; first compound 0.1 µM): 0.673
relative viability (CAL-12T; first compound 0.3162 µM): 0.726
relative viability (CAL-12T; first compound 1 µM): 0.573
relative viability (NCI-H1437; first compound 0.01 µM): 0.29
relative viability (NCI-H1437; first compound 0.03162 µM): 0.298
relative viability (NCI-H1437; first compound 0.1 µM): 0.28
relative viability (NCI-H1437; first compound 0.3162 µM): 0.362
relative viability (NCI-H1437; first compound 1 µM): 0.257
relative viability (NCI-H23; first compound 0.01 µM): 0.804
relative viability (NCI-H23; first compound 0.03162 µM): 0.878
relative viability (NCI-H23; first compound 0.1 µM): 0.791
relative viability (NCI-H23; first compound 0.3162 µM): 0.879
relative viability (NCI-H23; first compound 1 µM): 0.781
relative viability (NCI-H522; first compound 0.01 µM): 0.726
relative viability (NCI-H522; first compound 0.03162 µM): 0.768
relative viability (NCI-H522; first compound 0.1 µM): 0.582
relative viability (NCI-H522; first compound 0.3162 µM): 0.688
relative viability (NCI-H522; first compound 1 µM): 0.633
relative viability (EMC-BAC-2; first compound 0.01 µM): 0.525
relative viability (EMC-BAC-2; first compound 0.03162 µM): 0.586
relative viability (EMC-BAC-2; first compound 0.1 µM): 0.562
relative viability (EMC-BAC-2; first compound 0.3162 µM): 0.592
relative viability (EMC-BAC-2; first compound 1 µM): 0.418
relative viability (NCI-H1755; first compound 0.01 µM): 0.634
relative viability (NCI-H1755; first compound 0.03162 µM): 0.649
relative viability (NCI-H1755; first compound 0.1 µM): 0.677
relative viability (NCI-H1755; first compound 0.3162 µM): 0.675
relative viability (NCI-H1755; first compound 1 µM): 0.585
relative viability (NCI-H1792; first compound 0.01 µM): 0.363
relative viability (NCI-H1792; first compound 0.03162 µM): 0.43
relative viability (NCI-H1792; first compound 0.1 µM): 0.312
relative viability (NCI-H1792; first compound 0.3162 µM): 0.232
relative viability (NCI-H1792; first compound 1 µM): 0.168
relative viability (HOP-62; first compound 0.01 µM): 0.81
relative viability (HOP-62; first compound 0.03162 µM): 0.847
relative viability (HOP-62; first compound 0.1 µM): 0.604
relative viability (HOP-62; first compound 0.3162 µM): 0.752
relative viability (HOP-62; first compound 1 µM): 0.654
relative viability (NCI-H727; first compound 0.01 µM): 0.509
relative viability (NCI-H727; first compound 0.03162 µM): 0.49
relative viability (NCI-H727; first compound 0.1 µM): 0.547
relative viability (NCI-H727; first compound 0.3162 µM): 0.728
relative viability (NCI-H727; first compound 1 µM): 0.632
relative viability (HCC-366; first compound 0.01 µM): 0.627
relative viability (HCC-366; first compound 0.03162 µM): 0.666
relative viability (HCC-366; first compound 0.1 µM): 0.65
relative viability (HCC-366; first compound 0.3162 µM): 0.622
relative viability (HCC-366; first compound 1 µM): 0.581
relative viability (SK-LU-1; first compound 0.01 µM): 0.661
relative viability (SK-LU-1; first compound 0.03162 µM): 0.551
relative viability (SK-LU-1; first compound 0.1 µM): 0.681
relative viability (SK-LU-1; first compound 0.3162 µM): 0.586
relative viability (SK-LU-1; first compound 1 µM): 0.285
relative viability (NCI-H460; first compound 0.01 µM): 0.536
relative viability (NCI-H460; first compound 0.03162 µM): 0.567
relative viability (NCI-H460; first compound 0.1 µM): 0.53
relative viability (NCI-H460; first compound 0.3162 µM): 0.68
relative viability (NCI-H460; first compound 1 µM): 0.329
relative viability (COR-L 105; first compound 0.01 µM): 0.476
relative viability (COR-L 105; first compound 0.03162 µM): 0.521
relative viability (COR-L 105; first compound 0.1 µM): 0.47
relative viability (COR-L 105; first compound 0.3162 µM): 0.615
relative viability (COR-L 105; first compound 1 µM): 0.421
relative viability (NCI-H2009; first compound 0.01 µM): 0.471
relative viability (NCI-H2009; first compound 0.03162 µM): 0.462
relative viability (NCI-H2009; first compound 0.1 µM): 0.451
relative viability (NCI-H2009; first compound 0.3162 µM): 0.456
relative viability (NCI-H2009; first compound 1 µM): 0.357
relative viability (A-427; first compound 0.01 µM): 0.294
relative viability (A-427; first compound 0.03162 µM): 0.273
relative viability (A-427; first compound 0.1 µM): 0.289
relative viability (A-427; first compound 0.3162 µM): 0.204
relative viability (A-427; first compound 1 µM): 0.173
relative viability (NCI-H1915; first compound 0.01 µM): 0.376
relative viability (NCI-H1915; first compound 0.03162 µM): 0.377
relative viability (NCI-H1915; first compound 0.1 µM): 0.365
relative viability (NCI-H1915; first compound 0.3162 µM): 0.373
relative viability (NCI-H1915; first compound 1 µM): 0.337
relative viability (LCLC-103H; first compound 0.01 µM): 0.34
relative viability (LCLC-103H; first compound 0.03162 µM): 0.335
relative viability (LCLC-103H; first compound 0.1 µM): 0.37
relative viability (LCLC-103H; first compound 0.3162 µM): 0.357
relative viability (LCLC-103H; first compound 1 µM): 0.293
relative viability (HARA; first compound 0.01 µM): 0.49
relative viability (HARA; first compound 0.03162 µM): 0.504
relative viability (HARA; first compound 0.1 µM): 0.489
relative viability (HARA; first compound 0.3162 µM): 0.395
relative viability (HARA; first compound 1 µM): 0.364
